# According to patent publication US12180189B2, “Proteostasis regulators” (Kineta, Inc., priority 2011, dated 2024):
# Target: USP14 (Homo sapiens, UniProt P54578)
# Experiment: USP14 inhibition (methodology of B. H. Lee et al. Nature 2010)
# Type: biochemical
# Details: average value from three experimental determinations
# Method: Known USP14 inhibitor IU1 (1-(1-(4-fluorophenyl)-2,5-dimethyl-1H-pyrrol-3-yl)-2-(pyrrolidin-1-yl)ethanone; B. H. Lee et al. Nature 2010, 467 (9), 179) was used as a comparative reference agent. The IC50 values in the Table below represent the average value from three experimental determinations. In the table below, “A” represents an IC50 of 0 to 5 uM, “B” represents an IC50 of 5 to 10 uM, and “C” represents and IC50 of greater than 10 uM.
# Sequence of USP14 (P54578 whole entry): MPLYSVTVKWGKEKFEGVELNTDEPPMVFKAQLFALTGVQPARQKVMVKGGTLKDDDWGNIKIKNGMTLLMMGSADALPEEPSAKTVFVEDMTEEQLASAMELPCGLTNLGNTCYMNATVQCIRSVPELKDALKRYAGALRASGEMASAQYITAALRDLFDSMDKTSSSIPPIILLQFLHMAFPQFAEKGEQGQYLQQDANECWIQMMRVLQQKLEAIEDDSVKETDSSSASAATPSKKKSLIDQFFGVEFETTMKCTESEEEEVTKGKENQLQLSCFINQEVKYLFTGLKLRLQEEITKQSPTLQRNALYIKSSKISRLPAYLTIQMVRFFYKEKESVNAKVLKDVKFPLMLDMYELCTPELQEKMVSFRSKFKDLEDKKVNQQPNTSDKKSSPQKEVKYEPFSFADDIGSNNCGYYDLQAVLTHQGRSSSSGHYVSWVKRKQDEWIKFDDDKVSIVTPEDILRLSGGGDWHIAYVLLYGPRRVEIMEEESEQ
# Sequence of USP14 (Q13200 whole entry partner): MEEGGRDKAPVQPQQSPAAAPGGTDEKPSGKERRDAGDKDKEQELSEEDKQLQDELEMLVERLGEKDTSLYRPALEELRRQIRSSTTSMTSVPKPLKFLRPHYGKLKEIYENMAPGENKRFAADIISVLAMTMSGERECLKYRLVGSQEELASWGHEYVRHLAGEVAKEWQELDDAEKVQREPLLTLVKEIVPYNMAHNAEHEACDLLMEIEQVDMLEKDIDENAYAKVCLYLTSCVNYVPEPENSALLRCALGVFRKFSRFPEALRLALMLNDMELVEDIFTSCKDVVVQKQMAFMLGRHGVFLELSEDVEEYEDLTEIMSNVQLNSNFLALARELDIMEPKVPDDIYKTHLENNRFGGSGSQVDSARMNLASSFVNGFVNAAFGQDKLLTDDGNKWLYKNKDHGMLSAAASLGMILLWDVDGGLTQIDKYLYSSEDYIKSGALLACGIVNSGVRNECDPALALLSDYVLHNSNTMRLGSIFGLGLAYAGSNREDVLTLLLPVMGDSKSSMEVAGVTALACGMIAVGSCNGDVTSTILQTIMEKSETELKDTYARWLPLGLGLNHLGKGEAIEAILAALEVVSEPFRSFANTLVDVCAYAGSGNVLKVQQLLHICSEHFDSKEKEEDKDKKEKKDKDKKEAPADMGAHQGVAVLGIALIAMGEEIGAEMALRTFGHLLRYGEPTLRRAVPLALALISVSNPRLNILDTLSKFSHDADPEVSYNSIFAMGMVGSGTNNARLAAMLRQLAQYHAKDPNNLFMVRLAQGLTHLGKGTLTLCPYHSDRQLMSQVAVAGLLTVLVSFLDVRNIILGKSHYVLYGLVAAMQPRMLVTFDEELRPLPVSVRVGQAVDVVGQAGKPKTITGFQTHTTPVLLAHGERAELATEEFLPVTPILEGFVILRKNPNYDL
# Sequence of USP14 (P35998 whole entry partner): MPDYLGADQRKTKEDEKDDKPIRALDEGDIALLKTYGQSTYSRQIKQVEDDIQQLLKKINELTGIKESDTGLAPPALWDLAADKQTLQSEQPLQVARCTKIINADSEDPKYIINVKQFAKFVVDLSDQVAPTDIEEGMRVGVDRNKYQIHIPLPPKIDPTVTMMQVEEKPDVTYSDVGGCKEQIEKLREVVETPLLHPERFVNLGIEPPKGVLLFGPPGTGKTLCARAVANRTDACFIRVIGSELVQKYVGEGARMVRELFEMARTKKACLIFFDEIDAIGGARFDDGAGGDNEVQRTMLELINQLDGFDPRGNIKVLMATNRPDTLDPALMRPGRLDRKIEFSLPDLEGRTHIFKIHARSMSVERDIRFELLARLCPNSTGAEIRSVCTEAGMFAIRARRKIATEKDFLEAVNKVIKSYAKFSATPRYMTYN
row,Compound,IC50 [µM]
1,"Cc1cc(C(=O)CN2CCCCC2)c(C)n1C [Compound A11, 2-(piperidin-1-yl)-1-(1,2,5-trimethyl-1H-pyrrol-3-yl)ethanone]",> 10
2,Cc1cc(C(=O)C(C)N2CCC(C(N)=O)CC2)c(C)n1-c1ccc(Cl)cc1 (stereo not shown) [Compound A44],> 10
3,"Cc1cc(C(=O)C(=O)N2CCC(F)CC2)c(C)n1-c1ccc(Cl)cc1 [Compound A7, 1-(1-(4-chlorophenyl)-2,5-dimethyl-1H-pyrrol-3-yl)-2-(4-fluoropiperidin-1-yl)ethane-1,2-dione]",> 10
4,Cc1cc(C#N)c(C)n1-c1ccc(Cl)cc1 [Compound A47],> 10
5,"O=C(CN1CCCCC1)N1CCN(c2ccc(F)cc2)CC1 [Compound A32, 1-(4-(4-fluorophenyl)piperazin-1-yl)-2-(piperidin-1-yl)ethanone]",> 10
6,"Cc1cc(C(=O)CN2CCCC2)c(C)n1C [Compound A12, 2-(pyrrolidin-1-yl)-1-(1,2,5-trimethyl-1H-pyrrol-3-yl)ethanone]",> 10
7,"Cc1cc(C(=O)Cn2cccc2)c(C)n1-c1ccc(Cl)cc1 [Compound A9, 1-[1-(4-Chloro-phenyl)-2,5-dimethyl-1H-pyrrol-3-yl]-2-pyrrol-1-yl-ethanone]",> 10
8,"O=C(CN1CCCC1)N1CCN(c2ccc(Cl)cc2)CC1 [Compound A31, 1-(4-(4-chlorophenyl)piperazin-1-yl)-2-(pyrrolidin-1-yl)ethanone]",> 10
9,"Cc1nn(-c2ccc(Cl)cc2)c(C)c1C(=O)CN(C)C1CC1 [Compound A20, 1-[1-(4-Chloro-phenyl)-3,5-dimethyl-1H-pyrazol-4-yl]-2-(Cyclopropyl-methyl-amino)-ethanone]",> 10
10,"Cc1cc(C(=O)CC(F)(F)F)c(C)n1-c1ccc(Cl)cc1 [Compound A4, 1-(1-(4-chlorophenyl)-2,5-dimethyl-1H-pyrrol-3-yl)-3,3,3-trifluoropropan-1-one]",> 10
11,"Cc1cc(C(=O)Cn2ccnc2)c(C)n1-c1ccc(Cl)cc1 [Compound A10, 1-[1-(4-Chloro-phenyl)-2,5-dimethyl-1H-pyrrol-3-yl]-2-imidazol-1-yl-ethanone]",> 10
12,"Cc1cc(C(=O)C(F)F)c(C)n1-c1ccc(Cl)cc1 [Compound A3, 1-(1-(4-chlorophenyl)-2,5-dimethyl-1H-pyrrol-3-yl)-2,2-difluoroethanone]",> 10
13,"Cc1sc(-c2ccc(Cl)cc2)cc1C(=O)CN1CCCCC1 [Compound A27, 1-(5-(4-chlorophenyl)-2-methylthiophen-3-yl)-2-(piperidin-1-yl)ethanone]",> 10
14,"Cc1cc(C(=O)CCl)c(C)n1-c1ccc(Cl)cc1 [Compound A8, 2-chloro-1-(1-(4-chlorophenyl)-2,5-dimethyl-1H-pyrrol-3-yl)ethanone]",> 10
15,"Cc1cc(C(=O)C(=O)O)c(C)n1-c1ccc(Cl)cc1 [Compound A5, 2-(1-(4-chlorophenyl)-2,5-dimethyl-1H-pyrrol-3-yl)-2-oxoacetic acid]",> 10
16,"CN(CC(=O)c1cnn(-c2ccc(Cl)cc2)c1)C1CC1 [Compound A24, 1-[1-(4-Chloro-phenyl)-1H-pyrazol-4-yl]-2-(cyclopropyl-methyl-amino)-ethanone]",> 10
17,"O=C(CN1CCCC1)c1cnn(-c2ccc(Cl)cc2)c1 [Compound A23, 1-[1-(4-Chloro-phenyl)-1H-pyrazol-4-yl]-2-pyrrolidin-1-yl-ethanone]",> 10
18,CNC(=O)C1CCN(C(C)C(=O)c2cc(C)n(-c3ccc(Cl)cc3)c2C)CC1 (stereo not shown) [Compound A45],> 10
19,COC(=O)C1CCN(C(C)C(=O)c2cc(C)n(-c3ccc(Cl)cc3)c2C)CC1 (stereo not shown) [Compound A46],> 10

# More lines, now with the values ahead:
row,IC50 [µM],Compound
1,> 10,"Cc1sc(-c2ccc(Cl)cc2)cc1C(=O)CN1CCC(O)CC1 [Compound A29, 1-(5-(4-chlorophenyl)-2-methylthiophen-3-yl)-2-(4-hydroxypiperidin-1-yl)ethanone]"
2,< 5,"Cc1c(C(=O)CN2CCCC2)cnn1-c1ccc(Cl)cc1 [Compound A14, 1-[1-(4-Chloro-phenyl)-5-methyl-1H-pyrazol-4-yl]-2-pyrrolidin-1-yl-ethanone]"
3,> 10,"O=C(CN1CCCCC1)c1cnn(-c2ccc(Cl)cc2)c1 [Compound A22, 1-[1-(4-Chloro-phenyl)-1H-pyrazol-4-yl]-2-piperidin-1-yl-ethanone]"
4,> 10,"Cc1cc(C(=O)CC2CCCC2)c(C)n1-c1ccc(Cl)cc1 [Compound A1, 1-[1-(4-Chloro-phenyl)-2,5-dimethyl-1H-pyrrol-3-yl]-2-cyclopentyl-ethanone]"
5,> 10,"Cc1oc(-c2ccc(Cl)cc2)nc1C(=O)CN1CCCCC1 [Compound A25, 1-[2-(4-Chloro-phenyl)-5-methyl-oxazol-4-yl]-2-piperidin-1-yl-ethanone]"
6,> 10,"Cc1cc(C(=O)CC2CCCCC2)c(C)n1-c1ccc(Cl)cc1 [Compound A2, 1-[1-(4-Chloro-phenyl)-2,5-dimethyl-1H-pyrrol-3-yl]-2cyclohexyl-ethanone]"
7,> 10,O=C(CN1CCCCC1)c1cc(-c2ccc(Cl)cc2)ns1 [Compound A26]
8,> 10,"Cc1nn(-c2ccc(Cl)cc2)c(C)c1C(=O)CC1CCCCC1 [Compound A21, 1-(1-(4-chlorophenyl)-3,5-dimethyl-1H-pyrazol-4-yl)-2-cyclohexylethanone]"
9,5 to 10,"Cc1nn(-c2ccc(Cl)cc2)c(C)c1C(=O)CN1CCCCC1 [Compound A18, 1-[1-(4-Chloro-phenyl)-3,5-dimethyl-1H-pyrazol-4-yl]-2-piperidin-1-yl-ethanone]"
10,> 10,"Cc1sc(-c2ccc(Cl)cc2)cc1C(=O)CN1CCC(F)CC1 [Compound A28, 1-(5-(4-chlorophenyl)-2-methylthiophen-3-yl)-2-(4-fluoropiperidin-1-yl)ethanone]"
11,< 5,"Cc1nn(-c2ccc(Cl)cc2)c(C)c1C(=O)CN1CCCC1 [Compound A19, 1-[1-(4-Chloro-phenyl)-3,5-dimethyl-1H-pyrazol-4-yl]-2-Pyrrolidine-1-yl-ethanone]"
12,> 10,"Cc1c(C(=O)CN2CCCC2)nnn1-c1ccc(F)cc1 [Compound A30, 1-(1-(4-fluorophenyl)-5-methyl-1H-1,2,3-triazol-4-yl)-2-(pyrrolidin-1-yl)ethanone]"
